# Measured values as given in patent US9890147B2 (BAYER PHARMA AKTIENGESELLSCHAFT, priority 2012, dated 2018).
# Experiments:
# [1] = molecular target: T1, BRD4 (BD1) (Homo sapiens, UniProt O60885); experiment: Binding assay BRD4/acetylated peptide H4 (TR-FRET protein-protein interaction assay)
# T1 construct: with relatively long constructs also being possible, preferably amino acids 44-168; made in house; host or cells: E. coli
# Source text: Binding Assay BRD4/Acetylated Peptide H4 (“PRO”)
# To assess the BRD4 binding of the substances described in the present application, their ability to inhibit the interaction between BRD4 (BD1) and acetylated histone H4 in a dose-dependent manner was quantified (Filippakopoulos et al., Cell, 2012, 149: 214-231).
# For this purpose, use was made of a time-resolved fluorescence resonance energy transfer (TR-FRET) assay which measured binding between N-terminally His6-tagged BRD4 (BD1) (amino acids 67-152, with relatively long constructs also being possible, preferably amino acids 44-168) and a synthetic acetylated histone H4 (Ac—H4) peptide having the sequence GRGK(Ac)GGK(Ac)GLGK(Ac)GGAK(Ac)RHGSGSK-biotin. The recombinant BRD4 protein-produced according to Filippakopoulos et al., Cell, 2012, 149: 214-231—was expressed in E. coli and purified by (Ni-NTA) affinity and (Sephadex G-75) size exclusion chromatography. The Ac—H4 peptide is commercially available, for example from Biosyntan (Berlin, Germany). In a typical assay, 11 different concentrations of each substance (0.1 nM, 0.33 nM, 1.1 nM, 3.8 nM, 13 nM, 44 nM, 0.15 μM, 0.51 μM, 1.7 μM, 5.9 μM and 20 μM) were measured in duplicate on the same microtitre plate. To this end, 100-fold concentrated solutions in DMSO were prepared by serial dilution (1:3.4) of a 2 mM stock solution in a clear 384-well microtitre platte (Greiner Bio-One, Frickenhausen, Germany) 50 nl of these were transferred into a black test plate (Greiner Bio-One, Frickenhausen, Germany). The test was started by addition of 2 μl of a 2.5-fold concentrated BRD4 solution (final concentration usually 10 nM in the […] of the reaction volume) in aqueous assay buffer [50 mM HEPES pH 7.5. 50 mM sodium chloride (NaCl), 0.25 mM CHAPS and 0.05% serum albumin (BSA)] to the substances in the test plate. This was followed by a 10-minute incubation step at 22° C. to pre-equilibrate putative complexes between BRD4 and the substances.
# The mixture was then incubated in the dark for one hour at 22° C. and then for at least 3 hours and at most overnight at 4° C. Formation of BRD4/Ac—H4 complexes was determined by measuring the resonance energy transfer from the streptavidin-Eu cryptate to the anti-6His-XL665 antibody in the reaction. To this end, the fluorescence emission was measured at 620 nm and 665 nm after excitation at 330-350 nm in a TR-FRET measuring device, for example a Rubystar or Pherastar (both from BMG Lab Technologies, Offenburg, Germany) or a Viewlux (Perkin-Elmer). The ratio of the emission at 665 nm and at […] was used as an indicator for the amount of BRD4/Ac—H4 complexes formed.
# The data obtained (ratios) were normalized, with 0% inhibition corresponding to the mean of the measured values of a set of controls (usually 32 data points) comprising all reagents. Here, 50 nl of DMSO (100%) were used instead of test substances. An inhibition of 100% corresponded to the mean of the measured values of a set of controls (usually 32 data points) comprising all reagents except for BRD4. The IC50 was determined by regression analysis based on a 4-parameter equation (minimum, maximum, IC50, Hill; Y=Max+(Min−Max)/(1+(X/IC 50)^Hill)).
# [2] = tested on: MOLM-13 cells; experiment: Cell proliferation assay (alamarBlue), MOLM-13; type: cell-based; details: Homo sapiens, 96 hours incubation, inhibition of cell proliferation
# Procedure: In accordance with the invention, the capability of the substances to inhibit cell proliferation was determined Cell viability was determined using the alamarBlue® reagent (Invitrogen) in a Victor X3 Multilabel Reader (Perkin Elmer). The excitation wavelength was 530 nm and the emission wavelenth […].
# The MOLM-13 cells (DSMZ, ACC 554) were sown at a concentration of 4000 cells/well in 100 μl growth medium (RPMI1640, 10% FCS) on 96-well microtitre plates.
# After an overnight incubation at 37° C., the fluorescence values (CI values) were determined. The plates were then treated with various substance dilutions (1E-5 M, 3E-6 M, 1E-6M, 3E-7 M, 1E-7 M, 3E-8 M, 1E-8 M) and incubated at 37° C. for 72 (MV4-11-, LOX-IMVI cells), 96 (MOLM-13-, B16F10-, MDA-MB-431-, Caov-3 cells), 120 (MOLP-8-, KMS-12-PE cells) or 168 (LAPC-4 cells) hours. The fluorescence values (CO values) were then determined. For the data analysis, the CI values were subtracted from the CO values and the results were compared between cells treated with different dilutions of the substance or with buffer solution only. These were used to calculate the IC 50 values (substance concentration required for 50% inhibition of cell proliferation).
SMILES,IC50 [1] [µM],IC50 [2] [µM]
"CNC(=O)N1N=C(c2ccc(-c3ccc([S+](C)[O-])cc3)cc2)c2cc(OC)c(OC)cc2CC1C (racemic) [Example 67, (±)-7,8-dimethoxy-N,4-dimethyl-1-[4′-(methylsulphinyl)biphenyl-4-yl]-4,5-dihydro-3H-2,3-benzodiazepine-3-carboxamide]",0.04,0.47
"CNC(=O)N1N=C(c2ccc(N3CCN(C)C(=O)C3)cc2)c2cc(OC)c(OC)cc2C[C@@H]1C [Example 138.1, (4S)-7,8-dimethoxy-N,4-dimethyl-1-[4-(4-methyl-3-oxopiperazin-1-yl)phenyl]-4,5-dihydro-3H-2,3-benzodiazepine-3-carboxamide]",0.04,0.18
"CNC(=O)N1N=C(c2ccc(-c3cccc(S(=O)(=O)NC)c3)cc2)c2cc(OC)c(OC)cc2CC1C (racemic) [Example 121, (±)-7,8-dimethoxy-N,4-dimethyl-1-[3′-(methylsulphamoyl)biphenyl-4-yl]-4,5-dihydro-3H-2,3-benzodiazepine-3-carboxamide]",0.04,0.27
"CNC(=O)N1N=C(c2ccc(N3CCOC3=O)cc2)c2cc(OC)c(OC)cc2CC1C (racemic) [Example 34, (±)-7,8-Dimethoxy-N,4-dimethyl-1-[4-(2-oxooxazolidin-3-yl)phenyl]-4,5-dihydro-3H-2,3-benzodiazepine-3-carboxamide]",0.05,0.35
"CNC(=O)N1N=C(c2ccc(N3CCCCC3=O)cc2)c2cc(OC)c(OC)cc2CC1C (racemic) [Example 35, (±)-7,8-dimethoxy-N,4-dimethyl-1-[4-(2-oxopiperidin-1-yl)phenyl]-4,5-dihydro-3H-2,3-benzodiazepine-3-carboxamide]",0.22,1.47
"CNC(=O)N1N=C(c2ccc(N3CCN(C)CC3=O)cc2)c2cc(OC)c(OC)cc2C[C@@H]1C [Example 43.1, (4S)-7,8-dimethoxy-N,4-dimethyl-1-[4-(4-methyl-2-oxopiperazin-1-yl)phenyl]-4,5-dihydro-3H-2,3-benzodiazepine-3-carboxamide]",0.17,0.81
"CNC(=O)N1N=C(c2ccc(N3CCN(C)CC3)cc2)c2cc(O)c(O)cc2CC1C (racemic) [Example 199, (±)-7,8-Dihydroxy-N,4-dimethyl-1-[4-(4-methylpiperazin-1-yl)phenyl]-4,5-dihydro-3H-2,3-benzodiazepine-3-carboxamide]",1.02,–
"CNC(=O)N1N=C(c2ccc(N3CCN(C(C)=O)CC3)cc2)c2ccc(OC(F)(F)F)cc2CC1C (racemic) [Example 217, (±)-1-[4-(4-acetylpiperazin-1-yl)phenyl]-N,4-dimethyl-7-(trifluoromethoxy)-4,5-dihydro-3H-2,3-benzodiazepine-3-carboxamide]",1.73,–
"CNC(=O)N1N=C(c2ccc(Cl)cc2)c2ccc(-c3ccncc3)cc2CC1C (racemic) [Example 240, (±)-1-(4-chlorophenyl)-N,4-dimethyl-7-(pyridin-4-yl)-4,5-dihydro-3H-2,3-benzodiazepine-3-carboxamide]",4.5,–
"CCC1Cc2cc(OC)c(OC)cc2C(c2ccc(-c3ccc(F)cc3)cc2)=NN1C(=O)NC (racemic) [Example 221, (±)-4-ethyl-1-(4′-fluorobiphenyl-4-yl)-7,8-dimethoxy-N-methyl-4,5-dihydro-3H-2,3-benzodiazepine-3-carboxamide]",1.98,–
"CNC(=O)N1N=C(c2ccc(Cl)cc2)c2ccc(N3CCOCC3=O)cc2CC1C (racemic) [Example 232, (±)-1-(4-chlorophenyl)-N,4-dimethyl-7-(3-oxomorpholin-4-yl)-4,5-dihydro-3H-2,3-benzodiazepine-3-carboxamide]",2.84,–
"CCC1Cc2cc(OC)c(OC)cc2C(c2ccc(N3CCOCC3=O)cc2)=NN1C(=O)NC (racemic) [Example 226, (±)-4-ethyl-7,8-dimethoxy-N-methyl-1-[4-(3-oxomorpholin-4-yl)phenyl]-4,5-dihydro-3H-2,3-benzodiazepine-3-carboxamide]",8.76,–
"COc1cc2c(cc1OC)C(c1ccc(N3CCN(C)CC3)cc1)=NN(C(C)=O)[C@@H](C)C2 (single isomer, unassigned) [Example 245.1]",0.39,–
"CCC1Cc2cc(OC)c(OC)cc2C(c2ccc(N3CC(F)C3)cc2)=NN1C(=O)NC (racemic) [Example 204, (±)-4-ethyl-1-[4-(3-fluoroazetidin-1-yl)phenyl]-7,8-dimethoxy-N-methyl-4,5-dihydro-3H-2,3-benzodiazepine-3-carboxamide]",1.22,–
"CNC(=O)N1N=C(c2ccc(Cl)cc2)c2ccc(N3CCS(=O)(=O)CC3)cc2CC1C (racemic) [Example 235, (±)-1-(4-chlorophenyl)-7-(1,1-dioxidothiomorpholin-4-yl)-N,4-dimethyl-4,5-dihydro-3H-2,3-benzodiazepine-3-carboxamide]",5.02,–
"CNC(=O)N1N=C(c2ccc(N3CCNCC3)cc2)c2cc(Cl)c(OC(F)(F)F)cc2CC1C (racemic) [Example 211, (±)-8-chloro-N,4-dimethyl-1-[4-(piperazin-1-yl)phenyl]-7-(trifluoromethoxy)-4,5-dihydro-3H-2,3-benzodiazepine-3-carboxamide]",0.3,–
"CNC(=S)N1N=C(c2ccc(N3CCN(C)CC3)cc2)c2cc(OC)c(OC)cc2CC1C (racemic) [Example 258, (±)-7,8-Dimethoxy-N,4-dimethyl-1-[4-(4-methylpiperazin-1-yl)phenyl]-4,5-dihydro-3H-2,3-benzodiazepine-3-carbothioamide]",0.19,–
"CNC(=O)N1N=C(c2ccc(N3CCN(CC(F)(F)F)CC3)cc2)c2cc(OC)c(OC)cc2CC1C (racemic) [Example 197, (±)-7,8-dimethoxy-N,4-dimethyl-1-{4-[4-(2,2,2-trifluoroethyl)piperazin-1-yl]phenyl}-4,5-dihydro-3H-2,3-benzodiazepine-3-carboxamide]",0.08,–
"CNC(=O)N1N=C(c2ccc(Cl)cc2)c2ccc(N3CCCC3)cc2CC1C (racemic) [Example 234, (±)-1-(4-chlorophenyl)-N,4-dimethyl-7-(pyrrolidin-1-yl)-4,5-dihydro-3H-2,3-benzodiazepine-3-carboxamide]",3.83,–
"CCC1Cc2cc(OC)c(OC)cc2C(c2ccc(N3CCS(=O)(=O)CC3)cc2)=NN1C(=O)NC (racemic) [Example 206, (±)-1-[4-(1,1-dioxidothiomorpholin-4-yl)phenyl]-4-ethyl-7,8-dimethoxy-N-methyl-4,5-dihydro-3H-2,3-benzodiazepine-3-carboxamide]",0.93,–
"CC[C@@H]1Cc2cc(OC)c(OC)cc2C(c2ccc(N3CCNCC3)cc2)=NN1C(=O)NC [Example 202.2, (4R)-4-ethyl-7,8-dimethoxy-N-methyl-1-[4-(piperazin-1-yl)phenyl]-4,5-dihydro-3H-2,3-benzodiazepine-3-carboxamide]",6.54,–
